Earlier results, collected in patent publication US20090191287A1, “Mitigation of Inflammation-Related Injuries” (priority 2008, published 2009).

Columns and labels:
myocardium at risk = details: allopurinol-pretreated dogs, left anterior descending artery ligated; control group 23%
heart infarct = details: dogs pretreated with allopurinol; control dogs 40%
[1] = tested on: high-risk coronary surgery patients; details: high-risk coronary surgery patients pretreated before operating; placebo 17%

For `Oc1ncnc2[nH]ncc12` [allopurinol], the “myocardium at risk destroyed (myocardial necrosis)” value (myocardium at risk) is listed as 9%, the heart infarct size (heart infarct) is listed as 22% and the mortality rate [1] is listed as 4%.
